Test results taken from patent US20100093747A1, “METHOD OF INDUCING NEGATIVE CHEMOTAXIS” (priority 2008, published 2010).
Marks after values point to notes of the source that are not given here.

Tested on: human neutrophils
Experiment: Chemorepulsion (negative chemotaxis) of neutrophils in Neuroprobe ChemoTx plates, migrated cells quantified with Cell Titer Glo
Format: cell-based
Details: 0.048, 0.48, 4.8 or 48 uM; FIGS. 1A, 1B and 1C
Experimental: Prior to beginning the assay, the following were prepared: • a. 0.5% Fetal Calf Serum (FCS) in Iscove's Modified Dulbecco's Medium (IMDM) (Assay Medium) (Both from ATCC). • b. Migratory cells at a concentration of 2×10^7 cells/ml in Assay Medium. • c. Four serial (10-fold) dilutions of the ligand of interest in Assay Medium. All stocks were diluted initially 1:100 into Assay Medium and subsequently made into 10 fold dilutions (100 uM, 10 uM, 1 uM, 0.1 uM). […] The same dilutions were followed. • 2. […] The plates were removed from packaging, leaving the membrane behind. • 4. 31 μl of the following solutions were pipetted into each well: • a. For media controls and for chemorepulsion samples, Assay Medium was used. • b. For chemoattraction samples, appropriate dilution of ligand was used. • 5. A sterile needle was used to pop any and all small bubbles present in each well. • 6. The membrane was carefully placed onto the plate, starting at one side and then slowly lowering the other edge onto the plate. • 7. 29 μl of the following were pipetted onto the top of each circle: • a. For media controls and chemoattraction samples, use Assay Medium. • b. For chemorepulsion samples, use the appropriate dilution of ligand. • 8. 2 μl of cells (40,000 cells) were added to each bubble of liquid from step 7. • 9. A needle was used to pop all air bubbles. • 10. The plate was covered with the supplied lid and incubated for the desired time at 37° C. in 5% CO2. Unless otherwise indicated, the incubation time was 1 hour for neutrophils and 3 hours for T cells. For monocytes and B cells, the incubation time was 2 hours. • 11. After the desired assay time, the liquid was removed from the top of the plate using a Kimwipe. At this point, the plate was stored (with the membrane in place) for up to 2 hours at 4° C. • 12. The membrane was carefully removed from the top of the plate and discard. The plate was examined under a microscope to look for ligand crystallization, contamination and overall migration. • 13. White read plates were preloaded with 25 ul PBS. • 14. Using a multichannel pipettor, 5 ul of Cell Titer Glo (Promega # G7572) was added to each well. • 15. Using a multichannel pipettor set at 30 ul, lysed cell solution was transferred to white read plates pre-loaded with PBS. • 16. The plate was read using the BioTek Synergy4 plate reader in order to quantify the number of migrated cells.
Compounds from the chemical analog library were screened once in CR mode as described.

Compound | chemorepulsion of neutrophils in response to the compound
COc1ccc2nc([S@@+]([O-])Cc3ncc(C)c(OC)c3C)[nH]c2c1 [esomeprazole, reference compound] | showed chemorepulsion

Same assay, conditions: neutrophils, four 10-fold dilutions

Compound | dose dependence of the induction of chemotaxis / chemorepulsion
COc1ccc2nc([S@@+]([O-])Cc3ncc(C)c(OC)c3C)[nH]c2c1 [esomeprazole, reference compound] | dose-dependent

Same assay, conditions: neutrophils, methods of Example 1

Compound | chemorepulsion class mark in Tables 1-4
CCOc1ccc2[nH]c(SCC(=O)N(c3ccccc3)C(C)C)nc2c1 [Compound 62] | 62* (Compounds that showed chemorepulsion that was at least 3-fold greater than media)
COc1ccc2[nH]c(SCC(=O)Nc3ccc(Br)cc3)nc2c1 [Compound 38] | 38* (Compounds that showed chemorepulsion that was at least 3-fold greater than media)
COc1ccc2[nH]c(SCC(=O)Nc3cc(Cl)ccc3OC)nc2c1 [Compound 37] | 37* (Compounds that showed chemorepulsion that was at least 3-fold greater than media)
COc1ccc2[nH]c(N3CCCC(C(=O)NCCc4ccccc4)C3)nc2c1 (stereo not shown) [Compound 157] | 157* (Compounds that showed chemorepulsion that was at least 3-fold greater than media)
COc1ccc2[nH]c(SCC(=O)Nc3ccc(Cl)cc3)nc2c1 [Compound 40] | 40* (Compounds that showed chemorepulsion that was at least 3-fold greater than media)
COc1ccc2[nH]c(Sc3c(-c4ccccc4)c4cc(Cl)ccc4[nH]c3=O)nc2c1 [Compound 54] | 54* (Compounds that showed chemorepulsion that was at least 3-fold greater than media)
COc1ccc2[nH]c(SCC(=O)NCc3ccccc3)nc2c1 [Compound 15] | 15* (Compounds that showed chemorepulsion that was at least 3-fold greater than media)
COc1ccc2[nH]c(SCC(=O)Nc3cc(NC(=O)CSc4nc5cc(OC)ccc5[nH]4)cc(C(=O)O)c3)nc2c1 [Compound 43] | 43* (Compounds that showed chemorepulsion that was at least 3-fold greater than media)
O=C(CSc1nc2cc([N+](=O)[O-])ccc2[nH]1)Nc1ccc(O)c(C(=O)O)c1 [Compound 59] | 59* (Compounds that showed chemorepulsion that was at least 3-fold greater than media)
COc1ccc2[nH]c(SCC(=O)Nc3ccccc3F)nc2c1 [Compound 16] | 16* (Compounds that showed chemorepulsion that was at least 3-fold greater than media)
O=C(CSc1nc2cc([N+](=O)[O-])ccc2[nH]1)Nc1ccccc1F [Compound 12] | 12* (Compounds that showed chemorepulsion that was at least 3-fold greater than media)
COc1ccc2[nH]c(Sc3ccc(C(F)(F)F)cc3[N+](=O)[O-])nc2c1 [Compound 88] | 88* (Compounds that showed chemorepulsion that was at least 3-fold greater than media)
COc1ccc2[nH]c(SCC(=O)Nc3ccccc3Br)nc2c1 [Compound 39] | 39* (Compounds that showed chemorepulsion that was at least 3-fold greater than media)
COc1ccc(NC(=O)CSc2nc3cc([N+](=O)[O-])ccc3[nH]2)c(OC)c1 [Compound 33] | 33* (Compounds that showed chemorepulsion that was at least 3-fold greater than media)
COc1ccc2[nH]c(SCC(=O)Nc3ccc4c(c3)OCO4)nc2c1 [Compound 36] | 36* (Compounds that showed chemorepulsion that was at least 3-fold greater than media)
O=[N+]([O-])c1ccc2nc(-c3cn4ccsc4n3)sc2c1 [Compound 132] | 132* (Compounds that showed chemorepulsion that was at least 3-fold greater than media)
CCOc1ccc2[nH]c(SCC(=O)Nc3ccc(O)c(C(=O)O)c3)nc2c1 [Compound 58] | 58* (Compounds that showed chemorepulsion that was at least 3-fold greater than media)

Compound | chemorepulsion class mark in Tables 1-4
COc1ccc2[nH]c(SCC(=O)c3ccc4c(c3)OCO4)nc2c1 [Compound 23] | 23* (Compounds that showed chemorepulsion that was at least 3-fold greater than media)
COc1ccc2[nH]c(Sc3c(-c4ccccc4)c4ccc(Cl)cc4[nH]c3=O)nc2c1 [Compound 99] | 99* (Compounds that showed chemorepulsion that was at least 3-fold greater than media)
COc1ccc2[nH]c(SCC(=O)Nc3ccc([N+](=O)[O-])cc3)nc2c1 [Compound 42] | 42* (Compounds that showed chemorepulsion that was at least 3-fold greater than media)
COc1ccc2[nH]c(SCc3cnc(C)nc3N)nc2c1 [Compound 80] | 80* (Compounds that showed chemorepulsion that was at least 3-fold greater than media)
COc1ccc2[nH]c(SCc3cccc(I)c3)nc2c1 [Compound 45] | 45* (Compounds that showed chemorepulsion that was at least 3-fold greater than media)
COc1ccc(C(=O)CSc2nc3cc(OC)ccc3[nH]2)cc1 [Compound 21] | 21* (Compounds that showed chemorepulsion that was at least 3-fold greater than media)
COc1ccc2[nH]c(SCc3ccc(Cl)c(Cl)c3)nc2c1 [Compound 22] | 22* (Compounds that showed chemorepulsion that was at least 3-fold greater than media)
COc1ccc2[nH]c(SCC(=O)Nc3nc4ccc(OC)cc4s3)nc2c1 [Compound 17] | 17* (Compounds that showed chemorepulsion that was at least 3-fold greater than media)
COc1ccc2[nH]c(N3CCCC(C(=O)NCCc4ccc(Cl)cc4)C3)nc2c1 (stereo not shown) [Compound 128] | 128* (Compounds that showed chemorepulsion that was at least 3-fold greater than media)
COc1ccc2[nH]c(SCC(=O)Nc3ccccc3[N+](=O)[O-])nc2c1 [Compound 41] | 41* (Compounds that showed chemorepulsion that was at least 3-fold greater than media)
CSc1nc2cc(Cl)c(Oc3ccc4ccccc4c3Br)cc2[nH]1 [Compound 136] | 136* (Compounds that showed chemorepulsion that was at least 3-fold greater than media)
CCOc1ccc2[nH]c(SCC(=O)Nc3ccccc3)nc2c1 [Compound 63] | 63* (Compounds that showed chemorepulsion that was at least 3-fold greater than media)
COc1ccc2[nH]c(SCC(=O)Nc3ccon3)nc2c1 [Compound 79] | 79* (Compounds that showed chemorepulsion that was at least 3-fold greater than media)
COc1ccc2[nH]c(SCc3ccc(Cl)cc3)nc2c1 [Compound 11] | 11* (Compounds that showed chemorepulsion that was at least 3-fold greater than media)
COc1ccc2[nH]c(SCC(=O)c3cc(C(C)(C)C)c(O)c(C(C)(C)C)c3)nc2c1 [Compound 20] | 20* (Compounds that showed chemorepulsion that was at least 3-fold greater than media)
CCOc1ccc2[nH]c(SCC(=O)Nc3nccs3)nc2c1 [Compound 60] | 60* (Compounds that showed chemorepulsion that was at least 3-fold greater than media)

Same assay, conditions: neutrophils, omeprazole 0.1, 1, 10 and 100 uM, FIG. 2

Compound | chemorepulsion relative to cells treated with media alone
COc1ccc2[nH]c([S+]([O-])Cc3ncc(C)c(OC)c3C)nc2c1 (stereo not shown) [omeprazole, reference compound] | greater than 5 fold

Same assay, conditions: neutrophils, rabeprazole at 106 uM, FIG. 59

Compound | chemorepulsion over media
COCCCOc1ccnc(C[S+]([O-])c2nc3ccccc3[nH]2)c1C (stereo not shown) [rabeprazole, reference compound] | greater than 3 fold
